Here are results for two compounds from patent publication US20230313217A1, “CHLOROPLAST TARGETING PEPTIDES AND CONJUGATES AND COMPOSITIONS THEREOF” (The Regents of the University of California, priority 2021, published 2023).

Data set [1] has as its system chloroplasts in leaf mesophyll cells. Nature of the data set: Chemical cargo (FDA) delivery to chloroplasts, confocal colocalization. The format is in vivo, Arabidopsis thaliana. Conditions: FDA alone. An excerpt: Chemical Cargo and Plasmid DNA and Delivery to Chloroplasts Mediated by Targeted Nanomaterials. To assess the delivery of chemical cargoes to chloroplasts mediated by TP-β-CD nanocarriers, we loaded β-cyclodextrins with the fluorescent dye […] (FDA) (FIG. 4A). We imaged the localization of FDA within leaf mesophyll tissues by confocal microscopy and quantified the localization of this fluorescence dye with chloroplasts autofluorescence (FIG. 4B,C). Plant leaves treated with TP-β-CD-FDA or TP-β-CD (Table 1) were analyzed for the fluorescence emission crosstalk with confocal microscopy under laser excitation with a 488 nm laser (FIG. 13A). […] When added together with CDs or β-CDs, the FDA was observed both in the intracellular and extracellular space. […] In contrast, when FDA was delivered by TP-β-CDs, most of the FDA fluorescence signal was detected inside leaf mesophyll cells and highly colocalized with chloroplasts (70.0±9.5%) (FIG. 4B). […] Although targeted TP-β-CDs improved the delivery of FDA to chloroplasts in leaf mesophyll cells, the FDA fluorescence signal was localized throughout the entire leaf mesophyll cells. […] Colocalization rates of FDA fluorescence with chloroplasts were determined using Mander's coefficient analysis (COLOC2, ImageJ). […]
Confocal Fluorescence Microscopy. […]

Data set [2] is described as follows: ζ potential of carbon nanostructures (Zetasizer). The format is physicochemical. Conditions: neutral charge. The method, then:
The resulting PEI-SWCNT suspension was characterized by measuring the absorbance spectra on a UV-vis absorbance spectrophotometer (UV-2600, Shimadzu). The quality of the SWCNT suspension was determined by analyzing absorbance peaks at 632 nm. This measurement was performed with triplicates. The concentration of the PEI-SWCNT was determined spectrophotometrically using the absorption value at 632 nm and utilizing the equation (absorbance at 632 nm/extinction coefficient of 0.036)=mg L^−1. The final concentration obtained after purification ranged from 18 to 30 mg/L. The nanoparticle ζ potential was measured using a Zetasizer (Nano ZS, Malvern Instruments) in samples suspended in 10 mM TES buffer pH 7.0, with 0.1 mM NaCl. The hydrodynamic size was measured using Zetasizer (Nano ZS, Malvern Instruments) in samples suspended in a 10 mM TES buffer at pH 7.
Characterization of Nanomaterials. All nanomaterials were characterized by absorbance UV-vis spectroscopy (UV-2600 Shimadzu), hydrodynamic size (Nano S), and ζ potential (Nano ZS). The nanomaterial ζ potential and hydrodynamic diameter were measured in a 10 mM TES buffer (pH 7.0). The ζ potential measurements were performed in 0.1 mM NaCl to improve conductivity and analyzed by the Hückel approximation model.^111 CD fluorescence emission was collected using a fluorescence spectrometer (Horiba PTI QM-400). The stepwise synthesis of TP-β-CDs was analyzed using FTIR (Thermo Nicolet 6700 FTIR).

As to `O=C(O)c1ccc2c(c1)C1(OC2=O)c2ccc(O)cc2Oc2cc(O)ccc21` [FDA, 6-carboxyfluorescein], the “localization of FDA in leaf mesophyll tissue” value in data set [1] is listed as “localized near the plasma membrane”. Take “MASSMLSSATMVGGC [chloroplast targeting peptide for CD]”: the “charge of chloroplast targeting peptide” value in data set [2] is on record as −0.1 mV.
